In PMC7833600 (The Journal of Biological Chemistry, 2021):
Non-standard residues stand in square brackets, D forms with d. Residues, ends and D or L forms follow the SMILES beside them. No end group written: not given here. *: point of attachment. Dnp = O=[N+]([O-])c1ccc(*)c([N+](=O)[O-])c1; Sta = CC(C)C[C@H](N)[C@@H](O)CC(=O)O; Mca = COc1ccc2c(CC(=O)*)cc(=O)oc2c1; Isovaleryl = CC(C)CC(=O)*

Key:
human ACE2 [1] = target: T1, human ACE2 (Homo sapiens, UniProt Q9BYF1); assay type: biochemical
human ACE2 [2] = target: T1, human ACE2; assay type: biochemical; remark: listed apart in the source
human ACE2 [3] = target: T1, human ACE2; assay: biochemical; conditions: IC50 for Competitive substrates, 1 h, 26 °C
ACE2 = conditions: cited from earlier work

T1 sequence (Q9BYF1 18-740 limits assumed): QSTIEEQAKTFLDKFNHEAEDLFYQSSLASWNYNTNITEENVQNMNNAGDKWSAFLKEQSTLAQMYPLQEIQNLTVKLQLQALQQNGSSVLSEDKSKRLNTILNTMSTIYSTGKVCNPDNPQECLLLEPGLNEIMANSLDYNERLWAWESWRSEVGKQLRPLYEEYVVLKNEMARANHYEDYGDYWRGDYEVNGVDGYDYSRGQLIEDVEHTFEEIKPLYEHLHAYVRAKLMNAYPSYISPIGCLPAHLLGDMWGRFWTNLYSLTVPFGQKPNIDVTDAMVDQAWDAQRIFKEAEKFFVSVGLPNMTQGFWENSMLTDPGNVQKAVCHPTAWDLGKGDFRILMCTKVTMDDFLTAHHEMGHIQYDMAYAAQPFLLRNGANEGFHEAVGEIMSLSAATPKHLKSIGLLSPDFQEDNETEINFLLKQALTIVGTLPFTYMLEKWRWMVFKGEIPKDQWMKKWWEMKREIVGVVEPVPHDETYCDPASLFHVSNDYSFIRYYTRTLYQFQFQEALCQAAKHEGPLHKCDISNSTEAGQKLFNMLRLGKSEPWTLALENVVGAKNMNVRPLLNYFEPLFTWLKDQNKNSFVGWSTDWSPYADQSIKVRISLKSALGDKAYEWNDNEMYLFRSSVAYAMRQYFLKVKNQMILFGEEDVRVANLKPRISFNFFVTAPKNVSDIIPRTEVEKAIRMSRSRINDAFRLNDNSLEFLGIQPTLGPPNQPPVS

NCCc1ccc(S(=O)(=O)F)cc1 [AEBSF]
effect on ACE2 activity (human ACE2 [1]): no effects

Mca-RPPGFSAFK(Dnp)-OH
amount of substrate cleaved by ACE2 (human ACE2 [2]): ~0.05 µM

RPPGFSPFR [BK, bradykinin]
IC50 (human ACE2 [3]): 0.68 ± 0.087 mM

CC(C)C[C@H](N[C@@H](Cc1cncn1Cc1cc(Cl)cc(Cl)c1)C(=O)O)C(=O)O [MLN-4760]
effect on ACE2 activity (human ACE2 [1]): completely blocked | effect on the spike / RBD mediated enhancement of ACE2 cleavage (human ACE2 [1]): abolished

Mca-YVADAPK(Dnp)-OH
amount of substrate cleaved by ACE2 (human ACE2 [2]): ~0.5 µM

YGGFLRRIRPKL↓K [dynorphin A 1-13]
k cat/Km of ACE2 cleavage (ACE2): > 1e+06 M⁻¹ s⁻¹

CC(C)CC(=O)N[C@H](C(=O)N[C@H](C(=O)N[C@@H](CC(C)C)[C@@H](O)CC(=O)N[C@@H](C)C(=O)N[C@@H](CC(C)C)[C@@H](O)CC(=O)O)C(C)C)C(C)C [pepstatin A] (Isovaleryl-VV[Sta]A[Sta]-OH)
effect on ACE2 activity (human ACE2 [1]): no effects

QRPRLSHKGPMP↓F [Apelin-13]
k cat/Km of ACE2 cleavage (ACE2): > 1e+06 M⁻¹ s⁻¹

N=C(N)NCCC[C@H](N)C(=O)N1CCC[C@H]1C(=O)N1CCC[C@H]1C(=O)NCC(=O)N[C@@H](Cc1ccccc1)C(=O)N[C@@H](CO)C(=O)N1CCC[C@H]1C(=O)N[C@@H](Cc1ccccc1)C(=O)O [desBK, des-Arg^9-bradykinin]
IC50 (human ACE2 [3]): 1.43 ± 0.655 mM

CC(=O)N[C@@H](CC(C)C)C(=O)N[C@@H](CC(C)C)C(=O)N[C@H](C=O)CCCNC(=N)N [leupeptin]
effect on ACE2 activity (human ACE2 [1]): no effects
